# In US7629377B2, “Substituted naphthyl indole derivatives as inhibitors of plasminogen activator inhibitor type-1 (PAI-1)” (Wyeth, priority 2008, dated 2009):
# Columns and labels:
# human PAI-1 = human PAI-1 (Homo sapiens, UniProt P05121); assay: Assay for Determining IC50 of Inhibition of PAI-1 (Antibody Assay); format: biochemical; settings: for IC50: Antibody Assay (footnote a), active PAI-1 bound to tPA-coated plate, pH 7.5; for inhibition at 25 µM: 25 μM test compound, footnote a (Antibody Assay)
# Chain of human PAI-1 (P05121 24-402): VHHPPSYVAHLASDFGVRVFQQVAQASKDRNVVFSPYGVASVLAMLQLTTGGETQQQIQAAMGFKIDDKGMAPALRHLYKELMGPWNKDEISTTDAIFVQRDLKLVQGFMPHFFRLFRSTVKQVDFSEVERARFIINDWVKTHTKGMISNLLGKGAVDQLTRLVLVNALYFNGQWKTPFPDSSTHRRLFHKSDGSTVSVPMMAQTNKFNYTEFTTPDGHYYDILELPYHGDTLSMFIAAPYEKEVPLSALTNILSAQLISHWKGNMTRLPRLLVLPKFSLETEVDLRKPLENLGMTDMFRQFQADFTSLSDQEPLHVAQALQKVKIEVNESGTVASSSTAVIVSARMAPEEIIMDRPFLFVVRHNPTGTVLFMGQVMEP
# Protocol: Assay for Determining IC50 of Inhibition of PAI-1
# This assay is based upon the non-SDS dissociable interaction between tPA and active PAI-1. Assay plates are initially coated with human tPA (10 μg/ml). Test compounds are dissolved in DMSO at 10 mM, then diluted with physiologic buffer (pH 7.5) to a final concentration of 1-50 μM. Test compounds are incubated with human PAI-1 (50 ng/ml) for 15 minutes at room temperature. The tPA-coated plate is washed with a solution of 0.05% Tween 20 and 0.1% BSA, then the plate is blocked with a solution of 3% BSA. An aliquot of the test compound/PAI-1 solution is then added to the tPA-coated plate, incubated at room temperature for 1 hour, and washed. Active PAI-1 bound to the plate is assessed by adding an aliquot of a 1:1000 dilution of the 33B8 monoclonal antibody against human PAI-1, and incubating the plate at room temperature for 1 hour (Molecular Innovations, Royal Oak, Mich. The plate is again washed, and a solution of goat anti-mouse IgG-alkaline phosphatase conjugate is added at a 1:50,000 dilution in goat serum. The plate is incubated 30 minutes at room temperature, washed, and a solution of alkaline phosphatase substrate is added. The plate is incubated 45 minutes at room temperature, and color development is determined at OD405 nm. The quantitation of active PAI-1 bound to tPA at varying concentrations of test compound is used to determine the IC50. Results are analyzed using a logarithmic best-fit equation. The assay sensitivity is 5 ng/ml of human PAI-1 as determined from a standard curve ranging from 0-100 ng/ml.
# [1] = molecular target: T1, recombinant human plasminogen activator inhibitor-1 (PAI-1) (Homo sapiens, UniProt P05121); assay: modification of the Primary Screen for PAI-1 Inhibition; format: biochemical; settings: modification of the Primary Screen (footnote b); residual tPA activity, Spectrozyme-tPA
# T1 construct: purchased Molecular Innovations, Royal Oak, Mich
# T1 sequence (P05121 24-402): as above
# Protocol: Primary Screen for the PAI-1 Inhibition
# Test compounds are dissolved in DMSO at a final concentration of 10 mM, then diluted […] in physiologic buffer. The inhibitory assay is initiated by the addition of test compound (1-100 μM final concentration, maximum DMSO concentration of 0.2%) in a pH 6.6 buffer containing 140 nM recombinant human plasminogen activator inhibitor-1 (PAI-1; Molecular Innovations, Royal Oak, Mich. Following a 1 hour incubation at room temperature, 70 nM of recombinant human tissue plasminogen activator (tPA) is added, and the combination of test compound, PAI-1 and tPA is incubated for an additional 30 minutes. Following the second incubation, Spectrozyme-tPA (American Diagnostica, Greenwich, Conn.), a chromogenic substrate for tPA, is added and absorbance read at 405 nm at 0 and 60 minutes. Relative PAI-1 inhibition is equal to the residual tPA activity in the presence of test compound and PAI-1. Control treatments include the complete inhibition of tPA by PAI-1 at the molar ratio employed (2:1), and the absence of any effect of the test compound on tPA alone.
compound,measurement,setting,value
"CCCCCc1c(-c2ccc3c(Br)c(OCC(=O)O)ccc3c2)n(C)c2ccccc12 [Example 11, {[1-Bromo-6-(1-methyl-3-pentyl-1H-indol-2-yl)-2-naphthyl]oxy}acetic acid]",IC50,human PAI-1,10.7 µM
same,melting point,,> 73 °C (dec.)
"CCCCCc1c(-c2ccc3cc(OCc4nnn[nH]4)ccc3c2)n(C(C)=O)c2ccccc12 [Example 5, 1-Acetyl-3-pentyl-2-[6-(1H-tetraazol-5-ylmethoxy)-2-naphthyl]-1H-indole]",IC50,[1],9.2 µM
same,melting point,,> 95 °C (dec.)
"CCCCCc1c(-c2ccc3cc(OCc4nnn[nH]4)ccc3c2)n(Cc2ccc(C(C)(C)C)cc2)c2ccccc12 [Example 9, 1-(4-tert-Butylbenzyl)-3-pentyl-2-[6-(1H-tetraazol-5-ylmethoxy)-2-naphthyl]-1H-indole]",IC50,human PAI-1,24.9 µM
same,melting point,,> 95 °C (dec.)
"CCCCCc1c(-c2ccc3cc(OCc4nnn[nH]4)ccc3c2)n(C)c2ccccc12 [Example 3, 1-Methyl-3-pentyl-2-[6-(1H-tetraazol-5-ylmethoxy)-2-naphthyl]-1H-indole]",IC50,human PAI-1,16.2 µM
same,melting point,,120 to 122 °C
"CCCCCc1c(-c2ccc3c(Br)c(OCc4nnn[nH]4)ccc3c2)n(C(C)=O)c2ccccc12 [Example 6, 1-Acetyl-2-[5-bromo-6-(1H-tetraazol-5-ylmethoxy)-2-naphthyl]-3-pentyl-1H-indole]",inhibition at 25 µM,human PAI-1,16%
same,melting point,,> 79 °C (dec.)
"CCCCCc1c(-c2ccc3c(Br)c(OCc4nnn[nH]4)ccc3c2)n(Cc2ccccc2C(F)(F)F)c2ccccc12 [Example 8, 2-[5-Bromo-6-(1H-tetraazol-5-ylmethoxy)-2-naphthyl]-3-pentyl-1-[2-(trifluoromethyl)benzyl]-1H-indole]",inhibition at 25 µM,human PAI-1,57%
same,melting point,,> 85 °C (dec.)
"CCCCCc1c(-c2ccc3c(Br)c(OCc4nnn[nH]4)ccc3c2)n(Cc2ccccc2)c2ccccc12 [Example 2, 1-Benzyl-2-[5-bromo-6-(1H-tetraazol-5-ylmethoxy)-2-naphthyl]-3-pentyl-1H-indole]",IC50,[1],8.8 µM
same,melting point,,> 70 °C (dec.)
"CCCCCc1c(-c2ccc3cc(OCc4nnn[nH]4)ccc3c2)n(Cc2ccccc2C(F)(F)F)c2ccccc12 [Example 7, 3-Pentyl-2-[6-(1H-tetraazol-5-ylmethoxy)-2-naphthyl]-1-[2-(trifluoromethyl)benzyl]-1H-indole]",IC50,human PAI-1,5.22 µM
same,melting point,,> 100 °C (dec.)
"CCCCCc1c(-c2ccc3c(Br)c(OCc4nnn[nH]4)ccc3c2)n(Cc2ccc(C(C)(C)C)cc2)c2ccccc12 [Example 10, 2-[5-Bromo-6-(1H-tetraazol-5-ylmethoxy)-2-naphthyl]-1-(4-tert-butylbenzyl)-3-pentyl-1H-indole]",inhibition at 25 µM,human PAI-1,60%
same,melting point,,> 90 °C (dec.)
"CCCCCc1c(-c2ccc3c(Br)c(OCc4nnn[nH]4)ccc3c2)n(C)c2ccccc12 [Example 4, 2-[5-Bromo-6-(1H-tetraazol-5-ylmethoxy)-2-naphthyl]-1-methyl-3-pentyl-1H-indole]",IC50,[1],17.4 µM
same,melting point,,> 125 °C (dec.)
"CCCCCc1c(-c2ccc3cc(OCc4nnn[nH]4)ccc3c2)n(Cc2ccccc2)c2ccccc12 [Example 1, 1-Benzyl-3-pentyl-2-[6-(1H-tetraazol-5-ylmethoxy)-2-naphthyl]-1H-indole]",IC50,human PAI-1,9.85 µM
